The target of one data set is T1, acid sphingomyelinase (Homo sapiens, UniProt P17405).
T1 sequence (P17405 47-631): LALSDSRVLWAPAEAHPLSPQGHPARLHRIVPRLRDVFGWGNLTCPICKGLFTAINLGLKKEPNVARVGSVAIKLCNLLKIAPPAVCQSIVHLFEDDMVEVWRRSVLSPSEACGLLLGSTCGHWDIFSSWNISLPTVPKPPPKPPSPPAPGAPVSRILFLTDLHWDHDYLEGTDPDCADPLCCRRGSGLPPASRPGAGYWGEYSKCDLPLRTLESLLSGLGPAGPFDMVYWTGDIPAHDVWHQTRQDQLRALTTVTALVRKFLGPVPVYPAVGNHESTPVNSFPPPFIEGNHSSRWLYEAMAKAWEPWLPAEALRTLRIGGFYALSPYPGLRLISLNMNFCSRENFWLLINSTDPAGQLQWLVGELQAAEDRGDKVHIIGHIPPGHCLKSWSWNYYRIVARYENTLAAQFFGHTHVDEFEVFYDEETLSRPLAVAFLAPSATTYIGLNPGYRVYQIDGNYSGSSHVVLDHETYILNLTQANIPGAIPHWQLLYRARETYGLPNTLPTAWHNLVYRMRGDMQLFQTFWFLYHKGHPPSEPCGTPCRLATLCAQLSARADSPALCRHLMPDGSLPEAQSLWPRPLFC
The data set is described as follows: Acid sphingomyelinase inhibition (results not shown). Format: biochemical.

In a further data set the test system is GFAP-GFP mice. The data set is described as follows: Striatal IL-1β brain inflammation model: GFP-labeled astrocyte-derived EVs in plasma. Format: in vivo, mouse. To be noted: 10 mg/kg IP 0.5 h before IL-1β; 2 h post IL-1β. Here is the method: As we have previously shown[11],[18], striatal injection of IL-1β in mice expressing GFP-GFAP in astroglia triggers a release of GFP-labelled EVs that rapidly enter into plasma, resulting in cytokine upregulation in liver and peripheral immune cell migration into brain[11]. […] There were two groups of mice: the first group was sacrificed 2 h after IL-1β administration by heart puncture, and GFP-labeled circulating EVs were measured with liver cytokines. […] Counting of astrocyte-released EV (GFP+) from blood and liver cytokine analysis was conducted by single injection of DPTIP. Although release of EVs from astrocytes can be initiated immediately after intracranial injection of IL-1β, infiltration of neutrophils in brain parenchyma occurred 12h-24h after the IL-1β injection. […] Western analysis using the isolated exosomal fraction confirmed the presence of CD63 (transmembrane protein), TSG101 (cytosolic protein) and Flotilin-1 (lipid raft associated protein), commonly used EV markers[19],[20]. The GFP signal was an indication that these EVs originated in brain[11] while lack of mitofilin and α-actinin signals indicated the vesicles were not of mitochondrial[21] or cytoskeletal[22] origin respectively (Fig. 6B).
Compounds were given 0.5 h before IL-1β dosing. One group of mice was sacrificed 2 h after IL-1β administration to determine effects of the various treatments on extracellular vesicles (EVs) releases from brain and liver cytokine analysis. […] (C) Liver cytokine levels under different treatments as measured by qRT-PCR of RNA isolated from fresh frozen liver tissue. Samples were analyzed in triplicate. **p < 0.01 and *p < 0.05 compared to saline control; ^##p < 0.01 and ^#p < 0.05 compared to IL1-β group. (D) Neutrophil levels in brain as measured by immunohistochemistry using coronal brain sections and Ly6b antibody. (E) Quantitation of (D); **p < 0.01 compared to saline control; ^##p < 0.01 compared to IL1-β group. […]

A short description of data set [1]: In vivo pharmacokinetics, plasma and brain, 10 mg/kg IP. To be noted: male, CD1, mouse, mice.
Description: Pharmacokinetic studies in mice were approved by the Animal Care and Use Committee at Johns Hopkins University. Male CD1 mice between 25 and 30 g were obtained from Harlan and maintained on a 12 h light−dark cycle with ad libitum access to food and water. Test compounds were dosed at 10 mg/kg IP at a dosing volume of 10 mL/kg. Blood and brain tissue were collected at 0.25, 0.5, 1, 2, 4 and 6 h post dose (n = 3 per time point). Blood was obtained via cardiac puncture and plasma was harvested from blood by centrifugation at 3000 × g for 15 min and stored at −80 °C. Brain tissues were harvested following blood collection and immediately snap frozen in liquid nitrogen and stored at −80 °C until LC−MS analysis. […] The samples were vortex mixed for 30 secs and centrifuged at 10000 × g for 10 min at 4 °C. Fifty microliter of the supernatant was diluted with 50 µL water and transferred to a 250 µL polypropylene vial sealed with a Teflon cap and analyzed via LC/MS/MS as described above. Plasma concentrations (pmol/mL) as well as tissue concentrations (pmol/g) were determined and plots of mean plasma concentration versus time were constructed for PK analysis. Non-compartmental-analysis modules in Phoenix WinNonlin version 7.0 (Certara USA, Inc., Princeton, NJ) were used to assess pharmacokinetic parameters including maximal concentration (Cmax), time to Cmax (Tmax), and area under the curve extrapolated to infinity (AUC0-∞).

`COc1cc(-c2nc(-c3cccs3)c(-c3ccccc3)[nH]2)cc(OC)c1O` [DPTIP, 2,6-Dimethoxy-4-(5-Phenyl-4-Thiophen-2-yl-1H-Imidazol-2-yl)-Phenol]: the concentration for half-maximal inhibition (IC50) at acid sphingomyelinase was over 100 µM. The “reduction of number of astrocyte-derived EVs” value in the data set with GFAP-GFP mice was 51 ± 13%. The Kp in data set [1] (brain and plasma, read-out: AUCbrain/AUCplasma) is 0.26. For the same molecule, in data set [1] (brain), the area under the curve AUC(0-inf) turned out to be 2.6 ± 0.5 µM·h and the Tmax was 30 min. In addition, in data set [1] (plasma), the total exposure AUC(0-inf) is 10 ± 1 µM·h and the Tmax turned out to be 30 min.
